The text below walks through data of patent US9914737B2, “Triazolopyrimidinone or triazolopyridinone derivatives, and use thereof” (ST PHARM CO., LTD., priority 2014, dated 2018).

The IC50 is the concentration that gives 50% inhibition.

The first assay has as its target T1, tankyrase 1 (Homo sapiens, UniProt O95271).
T1 construct: purchased Trevigen 4700-096-K
T1 sequence (O95271 1-1327): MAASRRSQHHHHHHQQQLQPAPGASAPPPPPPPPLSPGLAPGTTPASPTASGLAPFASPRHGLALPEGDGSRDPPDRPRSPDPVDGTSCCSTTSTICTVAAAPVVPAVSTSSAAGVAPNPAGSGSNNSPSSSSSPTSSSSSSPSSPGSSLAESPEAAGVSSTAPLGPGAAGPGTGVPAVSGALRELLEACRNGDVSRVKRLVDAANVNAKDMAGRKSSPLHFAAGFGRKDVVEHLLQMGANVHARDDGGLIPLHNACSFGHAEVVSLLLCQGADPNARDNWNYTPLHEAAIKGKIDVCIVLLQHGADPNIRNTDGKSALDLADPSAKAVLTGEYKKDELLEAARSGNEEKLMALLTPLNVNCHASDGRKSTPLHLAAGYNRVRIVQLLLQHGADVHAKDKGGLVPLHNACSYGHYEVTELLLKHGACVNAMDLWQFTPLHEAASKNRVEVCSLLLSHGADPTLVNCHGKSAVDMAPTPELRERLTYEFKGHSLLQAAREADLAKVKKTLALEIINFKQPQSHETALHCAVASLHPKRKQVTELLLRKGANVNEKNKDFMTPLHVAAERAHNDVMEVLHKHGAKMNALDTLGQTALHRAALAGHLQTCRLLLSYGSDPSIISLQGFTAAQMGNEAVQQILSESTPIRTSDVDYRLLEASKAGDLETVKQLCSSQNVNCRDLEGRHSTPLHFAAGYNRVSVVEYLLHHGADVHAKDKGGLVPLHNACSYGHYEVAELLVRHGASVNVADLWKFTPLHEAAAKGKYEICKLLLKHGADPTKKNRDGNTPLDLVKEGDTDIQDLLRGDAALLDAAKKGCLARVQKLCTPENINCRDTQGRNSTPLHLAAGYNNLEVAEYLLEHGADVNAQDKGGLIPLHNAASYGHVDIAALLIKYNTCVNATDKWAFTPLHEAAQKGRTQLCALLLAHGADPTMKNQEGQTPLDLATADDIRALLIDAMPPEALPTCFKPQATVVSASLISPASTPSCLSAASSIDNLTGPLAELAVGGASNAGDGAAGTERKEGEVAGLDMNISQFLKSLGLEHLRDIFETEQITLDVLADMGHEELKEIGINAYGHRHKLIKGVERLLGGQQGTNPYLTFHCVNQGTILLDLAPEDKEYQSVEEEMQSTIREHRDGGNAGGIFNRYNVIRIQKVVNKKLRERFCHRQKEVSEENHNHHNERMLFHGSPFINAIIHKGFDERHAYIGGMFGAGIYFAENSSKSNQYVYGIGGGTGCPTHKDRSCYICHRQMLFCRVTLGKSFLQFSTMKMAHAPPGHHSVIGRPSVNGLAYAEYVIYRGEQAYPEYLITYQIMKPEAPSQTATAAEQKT
The assay is described as follows: Analysis of activity of tankyrase 1 (Trevigen kit, ELISA absorbance at 450 nm). It counts as biochemical.
Conditions: not given
How it is done:
Activities of novel compounds synthesized according to Examples 1 to 72 against tankyrase 1 were analyzed using a Trevigen kit (Cat. No. 4700-096-K). Poly PAR histone protein-coated 96-well plate, anti-PAR monoclonal antibody and goat anti-mouse IgG-HRP were used for measurement of absorbance by ELISA method. Specifically, 20× I-PAR assay buffer was diluted to 1× by adding water, and 50 μL of the diluted buffer was added to each well of the 96-well plate followed by reacting at rt for 30 min. Then, the supernatant was completely removed from each well and 10 μL of 1× I-PAR assay buffer and 15 μL of assay substrate were added to each well along with 1 μL of a 50× solution of inhibitors to be tested, which were the compounds obtained in the Examples 1 to 72. 10 mUnits/μL of tankyrase 1 enzyme was diluted 50-fold with 1× I-PAR assay buffer and 25 μL of the diluted enzyme was added to each well and reacted while stirring at rt for 30 min. One without any compound of the present invention was used as a positive control and another containing 1× I-PAR assay buffer with the same volume instead of tankyrase 1 enzyme was used as a negative control. Upon completion of the reaction, 200 μL of PBSX, which was prepared by adding 0.1% triton X-100 to PBS, was added and removed and this washing process was repeated twice. Washing was repeated twice more using PBS in the same manner. 5× antibody diluent was diluted with distilled water to 1× concentration, 50 μL of the diluted goat anti-mouse IgG-HRP to 1/2000 was added to each well and reacted while stirring at rt for 30 min. Washes were carried out twice using PBSX and PBS, respectively. After adding 50 μL of TACS-sapphire to each well of the plate, the plate was blocked from light to react for 10 min to 15 min and the color of the reaction solution turned blue. To stop the reaction, 50 μL of 0.2N HCl was added to turn the solution yellow. Finally, the absorbance of the resulting solution was measured at 450 nm.
For orientation: ELISA stands for enzyme-linked immunosorbent assay.
In turn, `Cn1nnc2c(=O)[nH]c(N3CCN(c4c(F)cc(F)cc4F)CC3)nc21` [compound 22, 3-Methyl-5-(4-(2,4,6-trifluorophenyl)piperazin-1-yl)-3H-[1,2,3]triazolo[4,5-d]pyrimidin-7(6H)-one] came in with an IC50 of 49.7 nM.
Still for that read-out and setting: with `COCCOc1cc(F)c(N2CCN(c3cc4c(nnn4C)c(=O)[nH]3)CC2)c(F)c1` [compound 53, 6-(4-(2,6-Difluoro-4-(2-methoxyethoxy)phenyl)piperazin-1-yl)-1-methyl-1H[1,2,3]triazolo[4,5-c]pyridin-4(5H)-one] the figure was 22.7 nM.

The assay is the same for the next values; noted with them: tankyrase 1 enzyme, Trevigen kit Cat. No. 4700-096-K, 30 min at rt; read-out: TNKS1 (IC50).
Consider `COCCOc1cc(F)c(C2(O)CCN(c3nc4c(nnn4C)c(=O)[nH]3)CC2)c(F)c1` [compound 25, 5-(4-(2,6-Difluoro-4-(2-methoxyethoxy)phenyl)-4-hydroxypiperidin-1-yl)-3-methyl-3H-[1,2,3]triazolo[4,5-d]pyrimidin-7(6H)-one], for which the half-maximal inhibitory concentration (IC50) was 33.1 nM.
On the same count and under the same terms, the value for `Cn1nnc2c(=O)[nH]c(N3CCC(c4nnn[nH]4)CC3)nc21` [compound 26, 5-(4-(1H-tetrazol-5-yl)piperidin-1-yl)-3-methyl-3H-[1,2,3]triazolo[4,5-d]pyrimidin-7(6H)-one] was 411 nM; that for `CN1CCN(CCOc2cc(F)c(N3CCN(c4nc5c(nnn5C)c(=O)[nH]4)CC3)c(F)c2)CC1` [compound 32, 5-(4-(2,6-Difluoro-4-(2-(4-methylpiperazin-1-yl)ethoxy)phenyl)piperazin-1-yl)-3-methyl-3H-[1,2,3]triazolo[4,5-d]pyrimidin-7(6H)-one] was 120 nM; that for `Cn1nnc2c(=O)[nH]c(N3CCN(c4c(F)cc(OCCCN5CCCCC5)cc4F)CC3)nc21` [compound 33, 5-(4-(2,6-Difluoro-4-(3-(piperidin-1-yl)propoxy)phenyl)piperazin-1-yl)-3-methyl-3H-[1,2,3]triazolo[4,5-d]pyrimidin-7(6H)-one] was 51.3 nM.
On the same count and under the same terms, the value for `COCCN(CCOC)c1cc(F)c(N2CCN(c3nc4c(nnn4C)c(=O)[nH]3)CC2)c(F)c1` [compound 34, 5-(4-(4-(Bis(2-methoxyethyl)amino)-2,6-difluorophenyl)piperazin-1-yl)-3-methyl-3H-[1,2,3]triazolo[4,5-d]pyrimidin-7(6H)-one] was 67.7 nM; that for `Cn1nnc2c(=O)[nH]c(N3CCN(c4c(F)cc(OCC(=O)N5CCCCC5)cc4F)CC3)nc21` [compound 35, 5-(4-(2,6-Difluoro-4-(2-oxo-2-(piperidin-1-yl)ethoxy)phenyl)piperazin-1-yl)-3-methyl-3H-[1,2,3]triazolo[4,5-d]pyrimidin-7(6H)-one] was 48.7 nM; that for `Cn1nnc2c(=O)[nH]c(N3CCN(c4c(F)cc(OCC(=O)N5CCCC5)cc4F)CC3)nc21` [compound 36, 5-(4-(2,6-Difluoro-4-(2-oxo-2-(pyrrolidin-1-yl)ethoxy)phenyl)piperazin-1-yl)-3-methyl-3H-[1,2,3]triazolo[4,5-d]pyrimidin-7(6H)-one] was 39.6 nM.
Still for that read-out and setting: the value for `Cn1nnc2c(=O)[nH]c(N3CCN(c4c(F)cc(OCCN)cc4F)CC3)nc21` [compound 37, 5-(4-(4-(2-Aminoethoxy)-2,6-difluorophenyl)piperazin-1-yl)-3-methyl-3H-[1,2,3]triazolo[4,5-d]pyrimidin-7(6H)-one] was 28.1 nM; that for `CN1CCN(CCOc2cc(F)c(N3CCN(c4nc5c(nnn5C)c(=O)[nH]4)CC3)c(F)c2)C(=O)C1` [compound 38, 5-(4-(2,6-Difluoro-4-(2-(4-methyl-2-oxopiperazin-1-yl)ethoxy)phenyl)piperazin-1-yl)-3-methyl-3H-[1,2,3]triazolo[4,5-d]pyrimidin-7(6H)-one] was 43 nM; that for `Cn1nnc2c(=O)[nH]c(N3CCN(c4c(F)cc(OCCN5CCC(N)CC5)cc4F)CC3)nc21` [compound 39, 5-(4-(4-(2-(4-Aminopiperidin-1-yl)ethoxy)-2,6-difluorophenyl)piperazin-1-yl)-3-methyl-3H-[1,2,3]triazolo[4,5-d]pyrimidin-7(6H)-one] was 22.7 nM.
Consider `COCCCc1cc(F)c(N2CCN(c3nc4c(nnn4C)c(=O)[nH]3)CC2)c(F)c1` [compound 40, 5-(4-(2,6-Difluoro-4-(3-methoxypropyl)phenyl)piperazin-1-yl)-3-methyl-3H-[1,2,3]triazolo[4,5-d]pyrimidin-7(6H)-one], for which the half-maximal inhibitory concentration (IC50) came out at 93.1 nM.
On the same count and under the same terms, the value for `Cn1nnc2c(=O)[nH]c(N3CCN(c4c(F)cc(OCCN5CCC(O)C5)cc4F)CC3)nc21` (centres unmarked) [compound 41, 5-(4-(2,6-Difluoro-4-(2-(3-hydroxypyrrolidin-1-yl)ethoxy)phenyl)piperazin-1-yl)-3-methyl-3H-[1,2,3]triazolo[4,5-d]pyrimidin-7(6H)-one] was 71.3 nM; that for `Cn1nnc2c(=O)[nH]c(N3CCN(c4c(F)cc(OCCN5CCC(O)CC5)cc4F)CC3)nc21` [compound 42, 5-(4-(2,6-Difluoro-4-(2-(4-hydroxypiperidin-1-yl)ethoxy)phenyl)piperazin-1-yl)-3-methyl-3H-[1,2,3]triazolo[4,5-d]pyrimidin-7(6H)-one] was 51.4 nM.
The same measure, in the same setting: with `Cn1nnc2c(=O)[nH]c(N3CCN(c4c(F)cc(OCCN5CCC(C)(O)CC5)cc4F)CC3)nc21` [compound 43, 5-(4-(2,6-Difluoro-4-(2-(4-hydroxy-4-methylpiperidin-1-yl)ethoxy)phenyl)piperazin-1-yl)-3-methyl-3H-[1,2,3]triazolo[4,5-d]pyrimidin-7(6H)-one] the figure was 50.9 nM; with `COCCOc1cc(F)c(C2=CCN(c3nc4c(nnn4C)c(=O)[nH]3)CC2)c(F)c1` [compound 44, 5-(4-(2,6-Difluoro-4-(2-methoxyethoxy)phenyl)-5,6-dihydropyridin-1(2H)-yl)-3-methyl-3H-[1,2,3]triazolo[4,5-d]pyrimidin-7(6H)-one], 52.9 nM.
In the case of `COCCOc1cc(F)c(C2CCN(c3nc4c(nnn4C)c(=O)[nH]3)CC2)c(F)c1` [compound 45, 5-(4-(2,6-Difluoro-4-(2-methoxyethoxy)phenyl)piperidin-1-yl)-3-methyl-3H-[1,2,3]triazolo[4,5-d]pyrimidin-7(6H)-one], the IC50 worked out at 37.6 nM.
Same read-out and setting: the value for `Cn1nnc2c(=O)[nH]c(N3CCN(c4c(F)cc(OCCN5CCOCC5)cc4F)CC3)cc21` [compound 54, 6-(4-(2,6-Difluoro-4-(2-morpholinoethoxy)phenyl)piperazin-1-yl)-1-methyl-1H-[1,2,3]triazolo[4,5-c]pyridin-4(5H)-one] was 11 nM; that for `Cn1nnc2c(=O)[nH]c(N3CCN(c4c(F)cc(OCCN5CCCCC5)cc4F)CC3)cc21` [compound 55, 6-(4-(2,6-Difluoro-4-(2-(piperidin-1-yl)ethoxy)phenyl)piperazin-1-yl)-1-methyl-1H-[1,2,3]triazolo[4,5-c]pyridin-4(5H)-one] was 29.3 nM.
